Data on five molecules can be found in ChEMBL document CHEMBL1158029, “Bisabolanes from the red alga Laurencia scoparia” (J Nat Prod, 2006).

The assay concerns Nippostrongylus brasiliensis. The assay can be described thus: Antihelminthic activity against L4 parasitant stage of Nippostrongylus brasiliensis. It is filed as functional, organism-based.

The source made the active and inactive calls. No cut-off for these calls is given here.

As for `C=C(C)C(O)CCC(=C)[C@@]1(O)CC[C@](C)(Br)[C@@H](Cl)C1` (relative stereo), the result was inactive. Regarding `C[C@@H]1CC[C@]23[C@H]1CC[C@@]2(C)C[C@H](C)[C@]3(C)O`, the result was inactive. Regarding `C=C(C[C@H](O)C=C(C)C)[C@@]1(O)CC[C@](C)(Br)[C@@H](Cl)C1`, the response was half-maximal at 110 µM (EC50). For the molecule `C=C(C)C(O)CCC(=C)[C@]1(O)CC[C@](C)(Br)[C@@H](Cl)C1` (relative stereo), the result was inactive. On the same count and under the same terms, then `C[C@@H]1CC[C@]23[C@H]1CC[C@@]2(C)C[C@@](C)(O)[C@H]3C`, with “inactive”.
